From publication PMC10414684, “Novel integrated computational AMP discovery approaches highlight diversity in the helminth AMP repertoire” (PLOS Pathogens, 2023)
Values after ≈ are worked out from the molar mass of the structure shown. Where a name gives a salt, the structure may show the parent alone. Read-outs that look alike come from different tables or passages of the source. No end group written: not given here.

Assays:
E. coli K12 = assay: Minimum inhibitory concentration, microbroth dilution; format: cell-based, Escherichia coli; conditions: 5x10^5 CFU/ml, 37°C, 18–24 h, visible growth; for MIC E. coli K12 (-): peptides 512–0.25μg/ml, >70% purity (Cecropin P1 >95%), Ciprofloxacin 32–0.02μg/ml; for MIC: read-out: MIC E. coli K12 (-), μM in brackets
Protocol: (§1) Prioritised helminth AMP-LPs were synthesised at >70% purity (Genosphere Biotechnologies). […] Peptides and control antibiotics [Ciprofloxacin (for gram-negative species; Sigma-Aldrich) and Vancomycin hydrochloride (for gram-positive species; Sigma-Aldrich)] were dissolved in sterile ultrapure water at a concentration of 5.12mg/ml. Minimum inhibitory concentrations (MICs) were determined for gram-positive and gram-negative bacterial isolates (see Table 3 for species) using microbroth dilution assays as described previously. Briefly, a single colony from each bacterial species was inoculated in cation-adjusted Mueller Hinton Broth (MHB) and grown for 18–24 hours at 37°C with shaking (225rpm) before being adjusted to a final bacterial density of 5x10^5 colony forming units (CFU) per ml. Peptides and Vancomycin hydrochloride were diluted using sterile MHB in sterile U-bottom 96 well polypropylene microplates (Greiner Bio One, UK) to give a concentration gradient ranging from 512–0.25μg/ml. Ciprofloxacin was further diluted in sterile MHB to give a concentration gradient ranging from 32–0.02μg/ml. Microplates were incubated at 37°C for 18–24 hours. Plates were assessed for visible growth and the MIC was defined as the lowest concentration of peptide or antibiotic that inhibited visible growth of a bacterial culture after an 18–24-hour incubation. MIC data were validated by positive and negative control antibiotic MIC data for each bacterial isolate.

A. baumannii DSM 30007 = assay: as above; format: cell-based, Acinetobacter baumannii; conditions: 5x10^5 CFU/ml, 37°C, 18–24 h, visible growth; for MIC A. baumannii DSM 30007 (-): peptides 512–0.25μg/ml, >70% purity (Cecropin P1 >95%), Ciprofloxacin 32–0.02μg/ml; for MIC: read-out: MIC A. baumannii DSM 30007 (-), μM in brackets
Protocol: as §1

P. aeruginosa PA01 = assay: as above; format: cell-based, Pseudomonas aeruginosa; conditions: 5x10^5 CFU/ml, 37°C, 18–24 h, visible growth; for MIC P. aeruginosa PA01 (-): peptides 512–0.25μg/ml, >70% purity (Cecropin P1 >95%), Ciprofloxacin 32–0.02μg/ml; for MIC: read-out: MIC P. aeruginosa PA01 (-), μM in brackets
Protocol: as §1

S. aureus EMRSA-15 = assay: microbe, parasite or virus in culture; format: cell-based, Staphylococcus aureus
Protocol: as §1

S. aureus RN4220 = assay: microbe, parasite or virus in culture; format: cell-based, Staphylococcus aureus; conditions: for MIC S. aureus RN4220 (+): peptides and Vancomycin hydrochloride 512–0.25μg/ml, peptides >70% purity (Cecropin P1 >95%)
Protocol: as §1

E. faecalis JH2-2 = assay: microbe, parasite or virus in culture; format: cell-based, Enterococcus faecalis
Protocol: as §1

[1] = Methicillin-resistant, microbroth dilution, cation-adjusted MHB, 5x10^5 CFU/ml, 37°C, 18–24 h, visible growth, peptides and Vancomycin hydrochloride 512–0.25μg/ml, peptides >70% purity (Cecropin P1 >95%)
[2] = Methicillin-Sensitive, microbroth dilution, cation-adjusted MHB, 5x10^5 CFU/ml, 37°C, 18–24 h, visible growth
[3] = microbroth dilution, cation-adjusted MHB, 5x10^5 CFU/ml, 37°C, 18–24 h, visible growth, peptides and Vancomycin hydrochloride 512–0.25μg/ml, peptides >70% purity (Cecropin P1 >95%)

| Compound | MIC E. coli K12 (-) (E. coli K12; cation-adjusted MHB) | MIC A. baumannii DSM 30007 (-) (A. baumannii DSM 30007; cation-adjusted MHB) | MIC P. aeruginosa PA01 (-) (P. aeruginosa PA01; cation-adjusted MHB) | MIC S. aureus EMRSA-15 (+) (S. aureus EMRSA-15; [1]) | MIC S. aureus RN4220 (+) (S. aureus RN4220; [2]) | MIC E. faecalis JH2-2 (+) (E. faecalis JH2-2; [3]) | also measured |
| --- | --- | --- | --- | --- | --- | --- | --- |
| FGYWSGGGHGGGHGIHGGGGGHHGWH [nAMP-LP-235, nematode AMP-like peptide selected for synthesis and MIC screening] | / (/ indicates that there was no activity at the highest concentration of peptide used (512μg/ml)) | / (/ indicates that there was no activity at the highest concentration of peptide used (512μg/ml)) | / (/ indicates that there was no activity at the highest concentration of peptide used (512μg/ml)) | / (/ indicates that there was no activity at the highest concentration of peptide used (512μg/ml)) | / (/ indicates that there was no activity at the highest concentration of peptide used (512μg/ml)) | / (/ indicates that there was no activity at the highest concentration of peptide used (512μg/ml)) |  |
| GAGRWRANRRANRRRFARRLRRNQRRAAQKRRAHARRHQRNLRRAARKIRRIQRR[nh2] (GAGRWRANRRANRRRFARRLRRNQRRAAQKRRAHARRHQRNLRRAARKIRRIQRR-NH2) [nAMP-LP-298, arginine-rich nematode AMP-like peptide conserved across four Clade 9/V gastrointestinal parasites] | 64 µg/mL | 32 µg/mL | 64 µg/mL | 64 µg/mL | 32 µg/mL | 64 µg/mL | MIC (E. coli K12; cation-adjusted MHB): 9 µM; MIC (A. baumannii DSM 30007; cation-adjusted MHB): 5 µM; MIC (P. aeruginosa PA01; cation-adjusted MHB): 9 µM; MIC S. aureus EMRSA-15 (+), μM in brackets (S. aureus EMRSA-15; Methicillin-resistant, microbroth dilution, cation-adjusted MHB, 5x10^5 CFU/ml, 37°C, 18–24 h, visible growth): 9 µM; MIC S. aureus RN4220 (+), μM in brackets (S. aureus RN4220; [2]): 5 µM; MIC E. faecalis JH2-2 (+), μM in brackets (E. faecalis JH2-2; microbroth dilution, cation-adjusted MHB, 5x10^5 CFU/ml, 37°C, 18–24 h, visible growth): 9 µM |
| GKKDEGKEVVDDKAGDKKGMKKSFRRQQGWIWIYW [nAMP-LP-1231, nematode AMP-like peptide selected for synthesis and MIC screening] | / (/ indicates that there was no activity at the highest concentration of peptide used (512μg/ml)) | / (/ indicates that there was no activity at the highest concentration of peptide used (512μg/ml)) | / (/ indicates that there was no activity at the highest concentration of peptide used (512μg/ml)) | / (/ indicates that there was no activity at the highest concentration of peptide used (512μg/ml)) | / (/ indicates that there was no activity at the highest concentration of peptide used (512μg/ml)) | / (/ indicates that there was no activity at the highest concentration of peptide used (512μg/ml)) |  |
| CN[C@H](CC(C)C)C(=O)N[C@H]1C(=O)N[C@@H](CC(N)=O)C(=O)N[C@H]2C(=O)N[C@H]3C(=O)N[C@H](C(=O)N[C@H](C(=O)O)c4cc(O)cc(O)c4-c4cc3ccc4O)[C@H](O)c3ccc(c(Cl)c3)Oc3cc2cc(c3O[C@@H]2O[C@H](CO)[C@@H](O)[C@H](O)[C@H]2O[C@H]2C[C@](C)(N)[C@H](O)[C@H](C)O2)Oc2ccc(cc2Cl)[C@H]1O [Vancomycin hydrochloride, reference compound] |  |  |  | 2 µg/mL | 1 µg/mL | 2 µg/mL | MIC (S. aureus EMRSA-15; Staphylococcus aureus, EMRSA15, read-out: MIC S. aureus EMRSA-15 (+), μM in brackets): 1 µM; MIC (S. aureus RN4220; Staphylococcus aureus, RN4220, read-out: MIC S. aureus RN4220 (+), μM in brackets): 0.7 µM; MIC (E. faecalis JH2-2; Enterococcus faecalis, JH22, read-out: MIC E. faecalis JH2-2 (+), μM in brackets): 1 µM |
| FDKNLLKKGKKSSAYEKHPISRRVLRFE [nAMP-LP-764, nematode AMP-like peptide selected for synthesis and MIC screening] | / (/ indicates that there was no activity at the highest concentration of peptide used (512μg/ml)) | / (/ indicates that there was no activity at the highest concentration of peptide used (512μg/ml)) | / (/ indicates that there was no activity at the highest concentration of peptide used (512μg/ml)) | / (/ indicates that there was no activity at the highest concentration of peptide used (512μg/ml)) | / (/ indicates that there was no activity at the highest concentration of peptide used (512μg/ml)) | / (/ indicates that there was no activity at the highest concentration of peptide used (512μg/ml)) |  |
| QWWGGRGGGRWRGGWRGGWRGRGRGWW [nAMP-LP-104] |  |  |  |  | 256 µg/mL |  | MIC S. aureus EMRSA-15 (+) (S. aureus EMRSA-15; EMRSA-15): 256 µg/mL; MIC E. faecalis JH2-2 (+) (E. faecalis JH2-2; JH2-2): 256 µg/mL |
| O=C(O)c1cn(C2CC2)c2cc(N3CCNCC3)c(F)cc2c1=O [Ciprofloxacin, reference compound] | 0.0625 µg/mL (≈ 0.189 µM) | 1 µg/mL (≈ 3.02 µM) | 0.5 µg/mL (≈ 1.51 µM) |  |  |  | MIC (E. coli K12; Escherichia coli, K12, cation-adjusted MHB): 0.2 µM (≈ 0.0663 µg/mL); MIC (A. baumannii DSM 30007; Acinetobacter baumannii, DSM30007, cation-adjusted MHB): 3 µM (≈ 0.994 µg/mL); MIC (P. aeruginosa PA01; Pseudomonas aeruginosa, PA01, cation-adjusted MHB): 2 µM (≈ 0.663 µg/mL) |
| AVAHVALKLATSPVGKVALNAMVPGAGTVLGVAAKHHGMVKKLVRV [nAMP-LP-224, nematode AMP-like peptide selected for synthesis and MIC screening] | / (/ indicates that there was no activity at the highest concentration of peptide used (512μg/ml)) | / (/ indicates that there was no activity at the highest concentration of peptide used (512μg/ml)) | / (/ indicates that there was no activity at the highest concentration of peptide used (512μg/ml)) | / (/ indicates that there was no activity at the highest concentration of peptide used (512μg/ml)) | / (/ indicates that there was no activity at the highest concentration of peptide used (512μg/ml)) | / (/ indicates that there was no activity at the highest concentration of peptide used (512μg/ml)) |  |
| EYLRKVKDAGAGKAKGGGAPGAESKSGKKSGSAETAASGGAKKGKKK [nAMP-LP-98, nematode AMP-like peptide selected for synthesis and MIC screening] | / (/ indicates that there was no activity at the highest concentration of peptide used (512μg/ml)) | / (/ indicates that there was no activity at the highest concentration of peptide used (512μg/ml)) | / (/ indicates that there was no activity at the highest concentration of peptide used (512μg/ml)) | / (/ indicates that there was no activity at the highest concentration of peptide used (512μg/ml)) | / (/ indicates that there was no activity at the highest concentration of peptide used (512μg/ml)) | / (/ indicates that there was no activity at the highest concentration of peptide used (512μg/ml)) |  |
| DGCPKRVAIAVLKAPYKIFKKEANKGLFKLADKIHGVRY [fAMP-LP-123, flatworm AMP-like peptide selected for synthesis and MIC screening] | / (/ indicates that there was no activity at the highest concentration of peptide used (512μg/ml)) | / (/ indicates that there was no activity at the highest concentration of peptide used (512μg/ml)) | / (/ indicates that there was no activity at the highest concentration of peptide used (512μg/ml)) | / (/ indicates that there was no activity at the highest concentration of peptide used (512μg/ml)) |  | / (/ indicates that there was no activity at the highest concentration of peptide used (512μg/ml)) |  |
